Measured values taken from article PMC12669040, “Tumour-specific STING agonist synthesis via a two-component prodrug system” (Nature Chemistry, 2025).
“And” between values parts separate entries of the source, which are not always exact repeats. Equal entries are not always repeated. Where two headings read alike, the source gives them in different places. Blank lines part the entries; values can stand above or below the molecule they belong to.

Tests used:
[1] = target: T1, wild-type human STING LBD (hSTINGwt 138-379) (Homo sapiens, UniProt Q86WV6, H232R); assay: Isothermal titration calorimetry (ITC), reverse titration; type: binding
T1 construct: SUMO (N, cleaved yes); made in house; host or cells: Escherichia coli BL21 (DE3)
Experimental: Escherichia coli BL21 (DE3) (Thermo Scientific EC0114) was transformed with a pET28a plasmid (Genscript) harbouring the codon-optimized sequence of SUMO-hSTINGwt (aa138-379). Transformed BL21 cells were inoculated into LB medium (50 µg ml^−1 kanamycin) and incubated at 180 rpm, 37 °C overnight. The overnight culture was then diluted (1:100 dilution) in 2× YT medium (50 µg ml^−1 kanamycin) and incubated at 180 rpm, 37 °C until optical density at 600 nm (OD600) reached 0.6 (approximately 3 h). The bacterial culture was then cooled to 16 °C, induced with 0.5 mM isopropyl 1-thio-D-galactopyranoside and incubated overnight at 180 rpm, 16 °C. The bacterial cells were pelleted at 4,000g for 30 min, resuspended in 20 ml of lysis buffer (25 mM HEPES pH 7.5, 150 mM NaCl, 20 mM imidazole and 2 mM TCEP supplied with 2 tablets of cOmplete mini EDTA-free protease inhibitors) and disrupted by sonication on ice. The total lysate was clarified by centrifugation at 22,000g for 30 min. The supernatant was collected and filtered through a 0.45-µm filter (Millipore SLHAR33SS). The clarified lysate was then incubated on a roller with 10 ml bed volume of Ni-NTA resin (Thermo Scientific 88223) at 4 °C for 1 h. The Ni-NTA resin was then packed in a column, flushed with 20 ml of wash buffer (25 mM HEPES pH 7.5, 150 mM NaCl and 20 mM imidazole) and eluted with 40 ml of elution buffer (25 mM HEPES pH 8.0, 150 mM NaCl and 250 mM imidazole). The eluted protein was concentrated to approximately 5 ml (Millipore Amicon 10 kDa molecular weight cut-off (MWCO)) and buffer-exchanged into storage buffer (25 mM HEPES pH 7.5 and 150 mM NaCl). TCEP was then added to a final concentration of 2 mM, and 250 units of SUMO protease (Merck SAE0067) were added. The cleavage reaction mixture was left to stand at 4 °C overnight until LC–MS analysis indicated the completion of the cleavage reaction. The cleavage mixture was incubated with 10 ml bed volume of Ni-NTA resin on a roller at 4 °C for 1 h and packed in a disposable column. The flowthrough was collected, and the resin was further flushed with 20 ml of wash buffer. The eluted fractions were combined, concentrated and further purified by size-exclusion chromatography (Cytiva, Superdex 200 Increase 10/300 GL). The purified protein in storage buffer was concentrated to 330 µM (dimer concentration) as determined by bicinchoninic acid (BCA) assay, aliquoted, flash-frozen in liquid nitrogen and stored at −80 °C for future use.
The binding constants of purified dimers were measured by ITC (Malvern Panalytical AutoITC200) in a reverse-titration format. Stock DMSO solutions of each dimer were dissolved in titration buffer (25 mM HEPES pH 7.5 and 150 mM NaCl) to a final concentration of 25 µM and added to the titration cell. The syringe was filled with 250 µM of purified STING in a matching buffer. Titration was performed at 25 °C with the following parameters: 750 rpm stirring, 0.2 µl initial injection followed by 2-µl injections of the […] every 120 s. Titration of STING protein into blank buffer was separately performed and subtracted from the raw data before the analysis. The background-subtracted titration curves were fitted with the built-in Origin software using the standard one-site model.
Extended Data Fig. 2 Isothermal titration calorimetry (ITC) data for binding constant measurements. Purified hSTINGwt138-379 (250 μM of homodimer) was titrated into each dimer (25 μM) dissolved in a matching buffer (25 mM HEPES pH 7.5, 150 mM NaCl) at 25 °C and 750 rpm stirring. Binding constants were reported as the average from duplicate measurements.

[2] = test system: THP-1 Lucia ISG cells (interferon pathway); assay: Potency test of purified dimers on THP-1 Lucia ISG reporter cells; type: cell-based, human; details: for Raw readings: replicates 1-3
Experimental: Cells were pelleted (150g, 10 min) and resuspended in the growth medium (40% conditioned) at a density of 1 × 10^6 cells ml^−1. The cell suspension was dispensed (50 µl each well) into a lidded white 96-well plate (BrandTech 781665). Test compounds or DMSO control were diluted in the growth medium and sterilized by filtering through 0.22-µm polyethersulfone (PES) membranes (Merck SLGP033RS). […] Upon cooling down to room temperature, 50 µl of reconstituted luciferase substrate (InvivoGen QUANTI-Luc) was added to each well via the injector of the plate reader (Molecular Devices SpectraMax i3x), and the luminescence output was recorded (4 s delay, 0.1 s integration). Raw signals were divided by the averaged signal of the DMSO-treated control wells and reported in relative luminescence unit (RLU). The dose–response curve of each replicate was fitted individually using the standard 4PL model (GraphPad Prism). The EC50 value of each compound was averaged from three independent experiments and reported as mean ± s.e.m.

THP-1 cells = assay: Dilution limits of N1/E4 combination to activate THP-1 cells (IFN-β ELISA); details: IFN-β secretion, 6 h, single component
[3] = target: the molecule itself; assay: crystal structure; STING LBD (247 µM) with compound D5 (2.2 mM), sitting drops, 20 °C; 2.31 Å
[4] = substrate: COc1cc2sc(C(=O)CCC(=O)O)cc2cc1SCO[C@@H]1O[C@H](C(=O)O)[C@@H](O)[C@H](O)[C@H]1O; assay: Michaelis–Menten kinetics of β-GlcA-N1 cleavage; type: biochemical, human; details: other: 37 °C, 0.2 M sodium acetate pH 4.5, 67 nM enzyme
Experimental: Human β-glucuronidase (AcroBiosystems BEB-H52H3) was reconstituted in deionized water to a concentration of 1 mg ml^−1. The enzyme stock solution was further diluted in assay buffer (0.2 M acetate pH 4.5) to 10 μg ml^−1 (134 nM). β-GlcA-N1 (50 mM DMSO stock) was twofold serially diluted in assay buffer from 5 to 0.078 mM. The enzyme solution and diluted β-GlcA-N1 were incubated in a transparent 96-well plate and incubated at 37 °C until thermo equilibrium was reached. Then, 100 µl of β-GlcA-N1 at various concentrations was mixed with 100 µl of β-glucuronidase using a multichannel pipette, resulting in the following initial condition: [β-GlcA-N1] = 2.5, 1.25, 0.62, 0.31, 0.16, 0.08 and 0.04 mM; [β-glucuronidase] = 67 nM; 5% DMSO (v/v). The reactions were incubated at 37 °C. At 30-min and 60-min timepoints, a 50-µl portion was withdrawn from each reaction mixture and mixed with 50 µl of quenching buffer (1 M sodium carbonate, 1 mM TCEP). The concentration of liberated N1 was determined by comparing the absorbance of each quenched reaction at 410 nm to a calibration curve of purified N1. Reaction velocities were calculated from the slopes of [N1] versus time plots. The velocity versus [β-GlcA-N1] plot was then fitted with the standard Michaelis–Menten kinetic model (GraphPad Prism).

T1 sequence (Q86WV6 138-379 H232R): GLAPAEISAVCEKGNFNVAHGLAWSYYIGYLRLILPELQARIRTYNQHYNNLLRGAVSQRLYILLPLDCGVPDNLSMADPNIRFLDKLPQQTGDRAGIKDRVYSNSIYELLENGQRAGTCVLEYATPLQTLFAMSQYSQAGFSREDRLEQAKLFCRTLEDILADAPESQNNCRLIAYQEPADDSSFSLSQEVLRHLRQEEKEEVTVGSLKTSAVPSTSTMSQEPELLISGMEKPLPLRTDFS

Kd ([1]; 25 °C, average of duplicate measurements, read-out: Kd hSTINGwt (binding constant, ITC)): 12 nM
Kd ([1]; ITC run _01, read-out: Kd): 15 nM
Kd ([1]; ITC run _02, read-out: Kd): 8 nM
EC50 ([2]; Homo sapiens, THP1-Lucia ISG, 24 h, three biological replicates, mean ± s.d., read-out: EC50 THP-1): 119 ± 2 nM
Molecule: COc1cc2sc(C(=O)CCC(=O)O)cc2cc1CSCc1cc2cc(C(=O)CCC(=O)O)sc2cc1OC [Compound D7]
Raw readings ([2]; Conc 0.508053 nM): 1113 RLU and 627 RLU and 644 RLU
Raw readings ([2]; Conc 1.52416 nM): 1094 RLU and 992 RLU and 1053 RLU
Raw readings ([2]; Conc 4.57247 nM): 783 RLU and 1083 RLU and 911 RLU
Raw readings ([2]; Conc 13.7174 nM): 1811 RLU and 3669 RLU and 2075 RLU
Raw readings ([2]; Conc 41.1523 nM): 26401 RLU and 56159 RLU and 31852 RLU
Raw readings ([2]; Conc 123.457 nM): 95964 RLU and 153788 RLU and 83328 RLU
Raw readings ([2]; Conc 370.37 nM): 127337 RLU and 208679 RLU and 128863 RLU
Raw readings ([2]; Conc 1111.11 nM): 148790 RLU and 255878 RLU and 161073 RLU
Raw readings ([2]; Conc 3333.33 nM): 168239 RLU and 288236 RLU and 165803 RLU
Raw readings ([2]; Conc 10000 nM): 170045 RLU and 271936 RLU and 154582 RLU
fold induction at 0.00152416 µM ([2]; Homo sapiens, THP1-Lucia ISG, 24 h, Concentration 1.52416 nM, three replicates, read-out: Processed reporter response per replicate (reading relative to DMSO)): 1.5
fold induction at 0.00457247 µM ([2]; Homo sapiens, THP1-Lucia ISG, 24 h, Concentration 4.57247 nM, three replicates, read-out: Processed reporter response per replicate (reading relative to DMSO)): 1.07
fold induction at 0.0137174 µM ([2]; Homo sapiens, THP1-Lucia ISG, 24 h, Concentration 13.7174 nM, three replicates, read-out: Processed reporter response per replicate (reading relative to DMSO)): 2.48
fold induction at 0.0411523 µM ([2]; Homo sapiens, THP1-Lucia ISG, 24 h, Concentration 41.1523 nM, three replicates, read-out: Processed reporter response per replicate (reading relative to DMSO)): 36.1
fold induction at 0.123457 µM ([2]; Homo sapiens, THP1-Lucia ISG, 24 h, Concentration 123.457 nM, three replicates, read-out: Processed reporter response per replicate (reading relative to DMSO)): 131
fold induction at 0.37037 µM ([2]; Homo sapiens, THP1-Lucia ISG, 24 h, Concentration 370.37 nM, three replicates, read-out: Processed reporter response per replicate (reading relative to DMSO)): 174
fold induction at 1.11111 µM ([2]; Homo sapiens, THP1-Lucia ISG, 24 h, Concentration 1111.11 nM, three replicates, read-out: Processed reporter response per replicate (reading relative to DMSO)): 204
fold induction at 3.33333 µM ([2]; Homo sapiens, THP1-Lucia ISG, 24 h, Concentration 3333.33 nM, three replicates, read-out: Processed reporter response per replicate (reading relative to DMSO)): 230
fold induction at 10 µM ([2]; Homo sapiens, THP1-Lucia ISG, 24 h, Concentration 10000 nM, three replicates, read-out: Processed reporter response per replicate (reading relative to DMSO)): 233

Molecule: COc1cc2sc(C(=O)CCC(=O)O)cc2cc1S [Compound N1]
concentration up to which no STING activation was shown (alone) (THP-1 cells): > 64 µM

B1: R232-STING 138-379 (ligand-binding domain of human STING) (domain or fragment, UniProt Q86WV6 138-379, looked up)
chain: GLAPAEISAVCEKGNFNVAHGLAWSYYIGYLRLILPELQARIRTYNQHYNNLLRGAVSQRLYILLPLDCGVPDNLSMADPNIRFLDKLPQQTGDHAGIKDRVYSNSIYELLENGQRAGTCVLEYATPLQTLFAMSQYSQAGFSREDRLEQAKLFCRTLEDILADAPESQNNCRLIAYQEPADDSSFSLSQEVLRHLRQEEKEEVTVGSLKTSAVPSTSTMSQEPELLISGMEKPLPLRTDFS
notes: chains A and B form the dimer; also called STING LBD; hSTING LBD; source: E. coli BL21(DE3), purified (Ni-NTA, TEV cleavage, reverse Ni-NTA, gel filtration)
binding result [3]: binds

B2: human β-glucuronidase (Homo sapiens) (protein)
chain: LQGGMLYPQESPSRECKELDGLWSFRADFSDNRRRGFEEQWYRRPLWESGPTVDMPVPSSFNDISQDWRLRHFVGWVWYEREVILPERWTQDLRTRVVLRIGSAHSYAIVWVNGVDTLEHEGGYLPFEADISNLVQVGPLPSRLRITIAINNTLTPTTLPPGTIQYLTDTSKYPKGYFVQNTYFDFFNYAGLQRSVLLYTTPTTYIDDITVTTSVEQDSGLVNYQISVKGSNLFKLEVRLLDAENKVVANGTGTQGQLKVPGVSLWWPYLMHERPAYLYSLEVQLTAQTSLGPVSDFYTLPVGIRTVAVTKSQFLINGKPFYFHGVNKHEDADIRGKGFDWPLLVKDFNLLRWLGANAFRTSHYPYAEEVMQMCDRYGIVVIDECPGVGLALPQFFNNVSLHHHMQVMEEVVRRDKNHPAVVMWSVANEPASHLESAGYYLKMVIAHTKSLDPSRPVTFVSNSNYAADKGAPYVDVICLNSYYSWYHDYGHLELIQLQLATQFENWYKKYQKPIIQSEYGAETIAGFHQDPPLMFTEEYQKSLLEQYHLGLDQKRRKYVVGELIWNFADFMTEQSPTRVLGNKKGIFTRQRQPKSAAFLLRERYWKIANETRYPHSVAKSQCLENSLFT
notes: purchased AcroBiosystems BEB-H52H3
Km [4]: 319 µM
kcat [4]: 0.48 s⁻¹
kcat/Km [4]: 1500 M⁻¹ s⁻¹
